Laboratory results taken from ChEMBL document CHEMBL1157501, “Novel fluorinated acridone derivatives. Part 1: synthesis and evaluation as potential anticancer agents” (Bioorg Med Chem Lett, 2008).

Key:
SF-295 [1] = assay: Anticancer activity against human SF295 cells; format: functional
[2] = Anticancer activity against human HL60(TB) cells; format: functional; settings: HL-60
NCI-H460 = assay: Anticancer activity against human NCI-H460 cells; format: functional
TK-10 = assay: Anticancer activity against human TK10 cells; format: functional
OVCAR-8 = assay: Anticancer activity against human OVCAR8 cells; format: functional
UO-31 = assay: Anticancer activity against human UO31 cells; format: functional
EKVX = assay: Anticancer activity against human EKVX cells; format: functional
ACHN = assay: Anticancer activity against human ACHN cells; format: functional
SK-MEL-28 [3] = assay: Growth inhibition of human SK-MEL-28 cells at 10 uM relative to control; format: functional
T47D [4] = assay: Growth inhibition of human T47D cells at 10 uM relative to control; format: functional
IGROV-1 = assay: Anticancer activity against human IGROV1 cells; format: functional
HOP-92 [5] = assay: Growth inhibition of human HOP92 cells at 10 uM relative to control; format: functional
K562 = assay: Anticancer activity against human K562 cells; format: functional
SF-539 = assay: Anticancer activity against human SF539 cells; format: functional
MOLT-4 [6] = assay: Growth inhibition of human MOLT4 cells at 10 uM relative to control; format: functional
SNB-75 [7] = assay: Growth inhibition of human SNB75 cells at 10 uM relative to control; format: functional
MDA-MB-435 = assay: Anticancer activity against human MDA-MB-435 cells; format: functional
A498 = assay: Anticancer activity against human A498 cells; format: functional
786-0 [8] = assay: Growth inhibition of human 786-0 cells at 10 uM relative to control; format: functional
UACC-257 [9] = assay: Growth inhibition of human UACC257 cells at 10 uM relative to control; format: functional
HT-29 [10] = assay: Anticancer activity against human HT29 cells; format: functional
MDA-MB-468 = assay: Anticancer activity against human MDA-MB-468 cells; format: functional
[11] = Growth inhibition of human HL60(TB) cells at 10 uM relative to control; format: functional, HL-60(TB); settings: HL-60
SW-620 = assay: Anticancer activity against human SW620 cells; format: functional
SF-295 [12] = assay: Growth inhibition of human SF295 cells at 10 uM relative to control; format: functional
SK-MEL-5 = assay: Anticancer activity against human SK-MEL-5 cells; format: functional
LOX IMVI = assay: Anticancer activity against human LOX IMVI cells; format: functional
OVCAR-4 = assay: Anticancer activity against human OVCAR4 cells; format: functional
CAKI-1 [13] = assay: Growth inhibition of human CAKI1 cells at 10 uM relative to control; format: functional
HCC 2998 = assay: Anticancer activity against human HCC2998 cells; format: functional
RPMI-8226 = assay: Anticancer activity against human RPMI8226 cells; format: functional
KM12 = assay: Anticancer activity against human KM12 cells; format: functional
Malme-3M = assay: Anticancer activity against human MALME-3M cells; format: functional
SK-OV-3 = assay: Anticancer activity against human SKOV3 cells; format: functional
HCT-116 [14] = assay: Growth inhibition of human HCT116 cells at 10 uM relative to control; format: functional
HOP-62 = assay: Anticancer activity against human HOP62 cells; format: functional
NCI-H522 = assay: Anticancer activity against human NCI-H522 cells; format: functional
NCI-H322M = assay: Anticancer activity against human NCI-H322M cells; format: functional
HOP-92 [15] = assay: Anticancer activity against human HOP92 cells; format: functional
HT-29 [16] = assay: Growth inhibition of human HT29 cells at 10 uM relative to control; format: functional
A549 [17] = assay: Anticancer activity against human A549 cells; format: functional
COLO 205 = assay: Anticancer activity against human COLO205 cells; format: functional
Hs-578T = assay: Anticancer activity against human HS578T cells; format: functional
SF-268 = assay: Anticancer activity against human SF268 cells; format: functional
U-251 = assay: Anticancer activity against human U251 cells; format: functional
OVCAR-3 = assay: Anticancer activity against human OVCAR-3 cells; format: functional
786-0 [18] = assay: Anticancer activity against human 786-0 cells; format: functional
MDA-MB-231 = assay: Anticancer activity against human MDA-MB-231 cells; format: functional
UACC-62 = assay: Anticancer activity against human UACC62 cells; format: functional
UACC-257 [19] = assay: Anticancer activity against human UACC257 cells; format: functional
M14 = assay: Anticancer activity against human M14 cells; format: functional
NCI-H226 = assay: Anticancer activity against human NCI-H226 cells; format: functional
NCI-H23 = assay: Anticancer activity against human NCI-H23 cells; format: functional
NCI/ADR-RES = assay: Anticancer activity against human NCI/ADR-RES cells; format: functional
HCT-116 [20] = assay: Anticancer activity against human HCT116 cells; format: functional
SNB-19 = assay: Anticancer activity against human SNB19 cells; format: functional
SN12C = assay: Anticancer activity against human SN12C cells; format: functional
CCRF-CEM [21] = assay: Anticancer activity against human CCRF-CEM cells; format: functional
SNB-75 [22] = assay: Anticancer activity against human SNB75 cells; format: functional
MCF7 [23] = assay: Anticancer activity against human MCF7 cells; format: functional
CAKI-1 [24] = assay: Anticancer activity against human CAKI1 cells; format: functional
MOLT-4 [25] = assay: Anticancer activity against human MOLT4 cells; format: functional
SK-MEL-28 [26] = assay: Anticancer activity against human SK-MEL-28 cells; format: functional
DU-145 = assay: Anticancer activity against human DU145 cells; format: functional
OVCAR-5 = assay: Anticancer activity against human OVCAR5 cells; format: functional
T47D [27] = assay: Anticancer activity against human T47D cells; format: functional
PC-3 = assay: Anticancer activity against human PC3 cells; format: functional
MCF7 [28] = assay: Growth inhibition of human MCF7 cells at 10 uM relative to control; format: functional
HCT-15 = assay: Anticancer activity against human HCT15 cells; format: functional
BT-549 [29] = assay: Anticancer activity against human BT549 cells; format: functional
CCRF-CEM [30] = assay: Growth inhibition of human CCRF-CEM cells at 10 uM relative to control; format: functional
A549 [31] = assay: Growth inhibition of human A549 cells at 10 uM relative to control; format: functional
Jurkat = assay: Antiproliferative activity against human Jurkat cells after 72 hrs by Alamar Blue assay; format: functional, cell-based
BT-549 [32] = assay: Antiproliferative activity against human BT549 cells after 72 hrs by alamar blue assay; format: functional, cell-based; settings: BT-549, 72 h
BT-20 = assay: Antiproliferative activity against human BT20 cells after 72 hrs by Alamar Blue assay; format: functional, cell-based; settings: BT-20, 72 h
SW480 = assay: Antiproliferative activity against human SW480 cells after 72 hrs by Alamar Blue assay; format: functional, cell-based; settings: SW480, 72 h

O=C1CC(C(F)(F)F)Cc2nc3c(Br)cc(Br)cc3cc21 (stereo unspecified)
GI50 (SF-295 [1]): 2.96 µM
GI50 [2]: 2.94 µM
GI50 (NCI-H460): 3.1 µM
GI50 (TK-10): 7.89 µM
GI50 (OVCAR-8): 26 µM
GI50 (UO-31): 3.86 µM
GI50 (EKVX): 3.54 µM
GI50 (ACHN): 17.5 µM
inhibition at 10 µM (SK-MEL-28 [3]): 40%
inhibition at 10 µM (T47D [4]): 66%
GI50 (IGROV-1): 1.29 µM
inhibition at 10 µM (HOP-92 [5]): 57%
GI50 (K562): 6.23 µM
GI50 (SF-539): 2.85 µM
inhibition at 10 µM (MOLT-4 [6]): 31%
inhibition at 10 µM (SNB-75 [7]): 76%
GI50 (MDA-MB-435): 1.56 µM
GI50 (A498): 2.69 µM
inhibition at 10 µM (786-0 [8]): 54%
inhibition at 10 µM (UACC-257 [9]): 39%
GI50 (HT-29 [10]): 4.42 µM
GI50 (MDA-MB-468): 5.11 µM
inhibition at 10 µM [11]: 58%
GI50 (SW-620): 15.7 µM
inhibition at 10 µM (SF-295 [12]): 61%
GI50 (SK-MEL-5): 5.03 µM
GI50 (LOX IMVI): 19 µM
GI50 (OVCAR-4): 6.49 µM
inhibition at 10 µM (CAKI-1 [13]): 44%
GI50 (HCC 2998): 2.6 µM
GI50 (RPMI-8226): 4.32 µM
GI50 (KM12): 2.02 µM
GI50 (Malme-3M): 7.15 µM
GI50 (SK-OV-3): 7.55 µM
inhibition at 10 µM (HCT-116 [14]): 64%
GI50 (HOP-62): 4.52 µM
GI50 (NCI-H522): 11.1 µM
GI50 (NCI-H322M): 6.26 µM
GI50 (HOP-92 [15]): 11.2 µM
inhibition at 10 µM (HT-29 [16]): 77%
GI50 (A549 [17]): 4.65 µM
GI50 (COLO 205): 3.23 µM
GI50 (Hs-578T): 16.3 µM
GI50 (SF-268): 4.35 µM
GI50 (U-251): 11.9 µM
GI50 (OVCAR-3): 1.79 µM
GI50 (786-0 [18]): 8.12 µM
GI50 (MDA-MB-231): 5.89 µM
GI50 (UACC-62): 9.87 µM
GI50 (UACC-257 [19]): 16.1 µM
GI50 (M14): 5.47 µM
GI50 (NCI-H226): 10.7 µM
GI50 (NCI-H23): 3.14 µM
GI50 (NCI/ADR-RES): 2.55 µM
GI50 (HCT-116 [20]): 4.03 µM
GI50 (SNB-19): 11.3 µM
GI50 (SN12C): 8.82 µM
GI50 (CCRF-CEM [21]): 21.9 µM
GI50 (SNB-75 [22]): 1.46 µM
GI50 (MCF7 [23]): 0.13 µM
GI50 (CAKI-1 [24]): 5.03 µM
GI50 (MOLT-4 [25]): 20.8 µM
GI50 (SK-MEL-28 [26]): 8.98 µM
GI50 (DU-145): 4.13 µM
GI50 (OVCAR-5): 1.91 µM
GI50 (T47D [27]): 3.55 µM
GI50 (PC-3): 5.75 µM
inhibition at 10 µM (MCF7 [28]): 41%
GI50 (HCT-15): 3.35 µM
GI50 (BT-549 [29]): 4.63 µM

Cc1c2c(nc3cc4c(cc13)OCO4)CC(C(F)(F)F)CC2=O (stereo unspecified)
inhibition at 10 µM (CCRF-CEM [30]): < 20%
inhibition at 10 µM (SK-MEL-28 [3]): < 20%
inhibition at 10 µM (T47D [4]): < 20%
inhibition at 10 µM (HOP-92 [5]): < 20%
inhibition at 10 µM (MOLT-4 [6]): < 20%
inhibition at 10 µM (SNB-75 [7]): 25%
inhibition at 10 µM (786-0 [8]): < 20%
inhibition at 10 µM (UACC-257 [9]): < 20%
inhibition at 10 µM [11]: < 20%
inhibition at 10 µM (A549 [31]): 67%
inhibition at 10 µM (SF-295 [12]): 32%
inhibition at 10 µM (CAKI-1 [13]): < 20%
inhibition at 10 µM (HCT-116 [14]): < 20%
inhibition at 10 µM (HT-29 [16]): < 20%
inhibition at 10 µM (MCF7 [28]): < 20%

O=C1CC(C(F)(F)F)Cc2nc3ccc(Cl)cc3c(-c3ccccc3)c21 (stereo unspecified)
inhibition at 10 µM (CCRF-CEM [30]): < 20%
inhibition at 10 µM (SK-MEL-28 [3]): < 20%
inhibition at 10 µM (T47D [4]): < 20%
inhibition at 10 µM (HOP-92 [5]): 37%
inhibition at 10 µM (SNB-75 [7]): < 20%
inhibition at 10 µM (786-0 [8]): < 20%
inhibition at 10 µM (UACC-257 [9]): 40%
inhibition at 10 µM (A549 [31]): 80%
inhibition at 10 µM (SF-295 [12]): 48%
inhibition at 10 µM (CAKI-1 [13]): 66%
inhibition at 10 µM (HCT-116 [14]): 25%
IC50 (Jurkat): 12.3 µM
inhibition at 10 µM (HT-29 [16]): < 20%
IC50 (BT-549 [32]): 16.1 µM
IC50 (BT-20): 22.1 µM
IC50 (SW480): 28.4 µM
inhibition at 10 µM (MCF7 [28]): < 20%

O=C1CC(C(F)(F)F)Cc2nc3ccc(Cl)cc3c(-c3ccccc3Cl)c21 (stereo unspecified)
inhibition at 10 µM (CCRF-CEM [30]): 60%
inhibition at 10 µM (SK-MEL-28 [3]): < 20%
inhibition at 10 µM (T47D [4]): < 20%
inhibition at 10 µM (HOP-92 [5]): 38%
inhibition at 10 µM (MOLT-4 [6]): 46%
inhibition at 10 µM (SNB-75 [7]): < 20%
inhibition at 10 µM (786-0 [8]): < 20%
inhibition at 10 µM (UACC-257 [9]): < 20%
inhibition at 10 µM [11]: < 20%
inhibition at 10 µM (A549 [31]): 50%
inhibition at 10 µM (SF-295 [12]): < 20%
inhibition at 10 µM (CAKI-1 [13]): < 20%
inhibition at 10 µM (HCT-116 [14]): 38%
IC50 (Jurkat): 87.6 µM
inhibition at 10 µM (HT-29 [16]): < 20%
IC50 (BT-549 [32]): 39.3 µM
IC50 (BT-20): 42.1 µM
IC50 (SW480): 21.3 µM
inhibition at 10 µM (MCF7 [28]): < 20%
